Reference: PubChem BioAssay AID2423 (Broad Institute, 2010)
Records with an inconclusive call do not appear. Calls of active or inactive are those of the source. The rule behind the calls is not given here.

Test system: C. albicans CaCi-8 + fluconazole, Alamar Blue growth, 48 h
Assay: resistant C. albicans growth inhibition with fluconazole, dose response, CaCi-8 strain, Alamar Blue fluorescence (AID 2423)

Compound	EC50
c1ccc2c(c1)OCC(CNc1ncnc3sccc13)O2 (stereo not given)	4.01 µM
CCCNC(=O)c1ccc2c(=O)c(O)c(-c3ccc(Cl)c([N+](=O)[O-])c3)[nH]c2c1	1.92 µM
COc1ccc(C(=O)Nc2ccccc2C(=O)Nc2ccccc2C(=O)O)cc1	7.54 µM
Cc1cc(NC(=O)c2c(F)cccc2Cl)n(-c2nc3ccccc3[nH]2)n1	7.39 µM
CN(C)S(=O)(=O)Oc1cccc(C(=O)Nc2ccc(Cl)cc2)c1	2.97 µM
O=C(NNC(=S)NC(=O)c1ccccc1)c1ccc([N+](=O)[O-])cc1	4.12 µM
CCCNC(=O)c1ccc2c(=O)c(O)c(-c3cccc(Br)c3)[nH]c2c1	3.04 µM
Clc1ccccc1C(c1ccccc1)(c1ccccc1)n1ccnc1	0.133 µM
Cc1cccc(C(=O)CC(=O)c2cc(Cl)ccc2O)c1	2.67 µM
Cn1c(SC2=CS(=O)(=O)c3ccccc32)nc2ccccc21	2.33 µM
Cc1cccc(C2CC3(CC(C)(C)NC(=S)N3)Oc3cc(O)ccc32)c1 (stereo not given)	3.97 µM
CCN(CC)c1ccc(/C=N/Nc2nc(C)cc(=O)[nH]2)c(O)c1	0.5 µM
CCN(CC)c1nc(N)c2c(N)nc3c(c2c1C#N)CC(c1ccccc1)O3 (stereo not given)	> 16 µM (inactive)
CCCOCc1ccc(O)c2ncccc12	2.17 µM
CCC(=O)NC(c1cccs1)c1cc([N+](=O)[O-])c2cccnc2c1O (stereo not given)	0.633 µM
CCC(C)(C)c1ccc(OCCCC[n+]2cccc(C)c2C)c(C(C)(C)CC)c1	> 16 µM (inactive)
Cc1ccc(NS(=O)(=O)c2ccc(CCC(=O)NCCO)cc2)cc1	> 15 µM (inactive)
CN1CCN(C(c2ccccn2)c2cc(Cl)c3cccnc3c2O)CC1 (stereo not given)	1.17 µM
O=C(Nc1nc(=O)c2ccccc2s1)c1ccccc1	> 15 µM (inactive)
O=C(NNC(=S)Nc1ccc(Cl)c(Cl)c1)c1ccccn1	1.13 µM
Cc1cc(OCC(=O)NNC(=S)NC(=O)c2cccs2)ccc1Cl	1.66 µM
O=C(Nc1ccncc1)c1ccc(Br)cc1	> 15 µM (inactive)
COc1ccccc1OCC(=O)N/N=C/C=C/c1ccc([N+](=O)[O-])o1	1.22 µM
COc1cccc(/C=N/NC(=O)c2c(C)nc3ccc(Br)cn23)c1O	0.642 µM
O=C(NNC(=S)NC(=O)C12CC3CC(CC(C3)C1)C2)c1ccncc1	4.64 µM
CCNC(=S)NNC(=O)c1cc(-c2cccc(C)c2)nc2ccccc12	2.27 µM
Cc1ccc(NCc2ccc(O)c3ncccc23)cc1	16 µM
Cc1ccc(NC(=O)c2sc3nc(N)c(C#N)cc3c2N)cc1	0.625 µM

Compound	EC50
C=CCc1c(C)c(C#N)c2nc3ccccc3n2c1NCCN(C)C	0.896 µM
Cc1onc(-c2ccccc2)c1C(=O)NC(=S)NNC(=O)c1cccnc1	> 16 µM (inactive)
O=C(NCCCc1ccccc1)Nc1cccc(Cl)c1	11.2 µM
Cc1nn(CC(=O)NCCCc2ccccc2)c(C)c1[N+](=O)[O-]	> 15 µM (inactive)
O=S(=O)(O)c1cccc2c(N=Nc3ccc(O)c4ncccc34)cccc12	> 16 µM (inactive)
COc1cccc(C(NC(C)=O)c2ccc3cccnc3c2O)c1 (stereo not given)	1.73 µM
Nc1ncc(Br)cc1S(=O)(=O)Nc1cc(C(F)(F)F)cc(C(F)(F)F)c1	0.918 µM
O=C(Nc1ccc(NC(=O)c2cccs2)cc1)c1ccc(Br)o1	9.96 µM
O=C(COc1ccccc1)Nc1nnc(-c2ccc3c(c2)CCCC3)o1	0.727 µM
Cc1noc(/C=C/c2ccccn2)c1[N+](=O)[O-]	1.9 µM
Cn1c(-c2c(N)n(CCc3ccccc3)c3nc4ccccc4nc23)nc2ccccc21	6.18 µM
Cc1onc(-c2ccccc2Cl)c1C(=O)Nc1sc2c(c1C#N)CCC2	< 0.12 µM
CCCOC(c1ccccc1)(c1ccc(C(F)(F)F)cc1)C(Oc1nc(C)cc(C)n1)C(=O)O (stereo not given)	6.47 µM
Cc1cc(C(C#N)c2ccccc2F)n2ncnc2n1 (stereo not given)	0.895 µM
O=C(NC(=S)Nn1cnc2c(cnn2-c2ccccc2)c1=O)c1ccc(Cl)cc1	4.15 µM
O=C(CN1C(=O)/C(=C/c2ccccc2)SC1=S)NNC(=O)c1ccccc1O	> 16 µM (inactive)
O=c1c2ccc(Cl)cc2nc(-c2ccc([N+](=O)[O-])cc2)n1O	1.09 µM
Cc1cc(Nc2ccc(Cl)cc2)nc(NCc2ccccc2)n1	5.16 µM
Nc1ccc(C(=O)N/N=C\c2ccc(OC(=O)c3ccccc3Cl)cc2)cc1	0.431 µM
CC(C)CCOC(=O)C[N+](C)(C)CCOC1CC2CCC1(C)C2(C)C (stereo not given)	3.05 µM
COc1ccc(CNCCNC(=O)c2ccco2)c(OC)c1OC	> 16 µM (inactive)
O=C(CSc1cccc[n+]1[O-])CSc1cccc[n+]1[O-]	13.4 µM
Nc1c2c(nc3sc4c(c13)CCCCC4)CCCCC2	5.55 µM
O=[N+]([O-])c1cc(Cl)c(O)c2ncccc12	0.344 µM
CCN(CC)c1ccc2cc(S(=O)(=O)c3ccc(C)cc3)c(=O)oc2c1	0.657 µM
Cc1nc(C)c(C(=O)N/N=C/c2cc(Br)ccc2O)s1	2.12 µM
Cc1ccc(S(=O)(=O)C(C#N)c2nc3ccccc3nc2N2CCN(C)CC2)cc1C (stereo not given)	16 µM
